Earlier results in PubChem BioAssay AID1259410 (Chemical Carcinogenesis Research Information System (CCRIS), 2018).

System: rodent tumor promotion studies, tumor incidence
Test: CCRIS tumor promotion studies

Question: Which outcome (Carcinogen: 3,2'-DIMETHYL-4-AMINOBIPHENYL, 13394-86-0, Doses [Carcinogen]: 50 MG/KG BW IN 0.5 ML CORN OIL 1/2 WK FOR 20 WK, Doses [Promoter]: 0, 10 UMOL/KG BW IN SALINE ONCE AT WK 20 (STUDY DURATION: 60 WK), Route [Carcinogen]: SUBCUTANEOUS, Route [Promoter]: INTRAMUSCULAR, Species: RAT, Strain/Sex: F344/MALE) does the source give for `[Cl][Cd][Cl]` here?
Answer: Its outcome is “ventral prostate: carcinoma”.

Question: What about the outcome (Carcinogen: 3,2'-DIMETHYL-4-AMINOBIPHENYL, 13394-86-0, Doses [Carcinogen]: 50 MG/KG BW IN 0.5 ML CORN OIL 1/2 WK FOR 20 WK, Doses [Promoter]: 0, 10 UMOL/KG BW IN SALINE ONCE AT WK 20 AND 0, 5 UMOL/KG BW ONCE AT WK 40 (STUDY DURATION: 60 WK), Doses [Promoter]: 0, 10 UMOL/KG BW IN SALINE ONCE AT WK 20 AND 0, 5 UMOL/KG BW ONCE AT WK 40 (STUDY DURATION: 60 WK), Route [Carcinogen]: SUBCUTANEOUS, Route [Promoter]: INTRAMUSCULAR, Species: RAT, Strain/Sex: F344/MALE) of the same compound?
Answer: The outcome was “ventral prostate: carcinoma”.

Question: With `NN=C(N)N` as the compound, how does the outcome (Carcinogen: AZOXYMETHANE, Doses [Carcinogen]: 2.5 MG/KG IN DISTILLED WATER 1/WK FOR 10 WK, Doses [Promoter]: 100 MG/KG IN 0.9%, NACL, 3/WK FOR 24 WK ADMINISTERED SIMULTANEOUSLY AND POST CARCINOGEN DOSES (STUDY DURATION: 52 WK), Route [Carcinogen]: SUBCUTANEOUS, Route [Promoter]: INTRAGASTRIC, Species: RAT, Strain/Sex: F344/MALE) read?
Answer: Its outcome is “colon: tumor”.

Question: What about the outcome (Carcinogen: N-METHYL-N'-NITRO-N-NITROSOGUANIDINE, 70-25-7, Doses [Carcinogen]: 25 UG/ML IN DRINKING WATER FOR 25 WK, Doses [Promoter]: 0, 25 MG/KG BW 1/2 D FOR 25 WK BEGINNING POST CARCINOGEN TREATMENT (STUDY DURATION: 52 WK), Route [Carcinogen]: ORAL, Route [Promoter]: SUBCUTANEOUS, Species: RAT, Strain/Sex: WISTAR/MALE) of the same compound?
Answer: Its outcome is “stomach: adenocarcinoma”.

Question: What does the source list for `CSCC[C@H](NC(=O)[C@H](Cc1ccccc1)NC(=O)CNC(=O)CNC(=O)[C@@H](N)Cc1ccc(O)cc1)C(=O)O`?
Answer: outcome (Carcinogen: AZOXYMETHANE, 25843-45-2, Doses [Carcinogen]: 7.4 MG/KG IN 0.9% SALINE 1/WK FOR 10 WK, Doses [Promoter]: 0, 50 UG/KG IN OLIVE OIL 1/2 D BEGINNING AT THE START OF CARCINOGEN TREATMENT AND CONTINUING FOR DURATION OF STUDY (STUD, Route [Carcinogen]: SUBCUTANEOUS, Route [Promoter]: SUBCUTANEOUS, Species: RAT, Strain/Sex: WISTAR/MALE): colon: tumor; outcome (Carcinogen: N-METHYL-N'-NITRO-N-NITROSOGUANIDINE, 70-25-7, Doses [Carcinogen]: 25 UG/ML IN DRINKING WATER FOR 25 WK, Doses [Promoter]: 0, 20 UG/KG 1/2 D BEGINNING POST CARCINOGEN TREATMENT AND CONTINUING FOR THE DURATION OF STUDY (STUDY DURATION: 52 WK), Route [Carcinogen]: ORAL, Route [Promoter]: SUBCUTANEOUS, Species: RAT, Strain/Sex: WISTAR/MALE): stomach: adenocarcinoma

Question: For `COS(C)(=O)=O`, which outcome (Carcinogen: N-METHYL-N-NITROSOUREA, 684-93-5, Doses [Carcinogen]: 0.3 MG IN CITRIC ACID PHOSPHATE BUFFER ONCE FOR 30 MIN, Doses [Promoter]: 0, 2.5 MG IN BUFFER 1/2 WK FOR 12 WK BEGINNING 14 D POST CARCINOGEN (STUDY DURATION: 2 YR), Route [Carcinogen]: INTRAVESICULAR, Route [Promoter]: INTRAVESICULAR, Species: RAT, Strain/Sex: F344/FEMALE) is on record?
Answer: Its outcome is “bladder: papillary transitional cell carcinoma”.

Question: For `NC(CO)C(=O)O` (configuration not stated), which outcome (Carcinogen: N-ETHYL-N-HYDROXYETHYLNITROSAMINE, 13147-25-6, Doses [Carcinogen]: 500 PPM IN DIET FOR 2 WK, Doses [Promoter]: 0, 100 MG/100 G BW IN 2 ML 5% SALINE GIVEN 1/2 WK FOR 3 DOSES BEGINNING 1 WK POST CARCINOGEN (STUDY DURATION: 32 WK), Route [Carcinogen]: ORAL, Route [Promoter]: SUBCUTANEOUS, Species: RAT, Strain/Sex: WISTAR/MALE) is on record?
Answer: Its outcome is “kidney: dark cell tumor, clear cell tumor, adenocarcinoma”.

Question: And the outcome (Carcinogen: N-ETHYL-N-HYDROXYETHYLNITROSAMINE, 13147-25-6, Doses [Carcinogen]: 1000 PPM IN DIET FOR 2 WK, Doses [Promoter]: 0, 100 MG/100 G BW IN 2 ML 5% SALINE GIVEN 1/2 WK FOR 3 DOSES BEGINNING 1 WK POST CARCINOGEN (STUDY DURATION: 32 WK), Route [Carcinogen]: ORAL, Route [Promoter]: SUBCUTANEOUS, Species: RAT, Strain/Sex: WISTAR/MALE)?
Answer: Its outcome is “kidney: dark cell tumor, clear cell tumor, adenocarcinoma”.

Question: For `CCCCCCCCCCC(C)C1(CCC(=O)OC2C(C)C3(O)C(C=C(CO)CC4(O)C(=O)C(C)=CC43)C3C(C)(C)C23OC(C)=O)OCC(C)(C)N1[O]` (configuration not stated), which outcome (Carcinogen: 7,12-DIMETHYLBENZ[A]ANTHRACENE, 57-97-6, Doses [Carcinogen]: 100 NMOL ONCE, Doses [Promoter]: 0, 20 NMOL 2/WK FOR 24 WK BEGINNING 1 WK POST CARCINOGEN DOSE (STUDY DURATION: 25 WK), Route [Carcinogen]: DERMAL, Route [Promoter]: DERMAL, Species: MOUSE, Strain/Sex: NMRI/FEMALE) is on record?
Answer: Its outcome is “skin: tumor”.

Question: For `CCC1(CC)C(=O)N=C(O)NC1=O`, which outcome (Carcinogen: CISPLATIN, 15663-27-1, Doses [Carcinogen]: 5 MG/KG BW GIVEN INTRAPERITONEALLY TO FEMALE RATS ON DAY 18 OF GESTATION, Doses [Promoter]: 0, 500 PPM IN DRINKING WATER BEGINNING AT 4 WK OF AGE AND CONTINUING FOR 75 WK (STUDY DURATION: 79 WK), Route [Carcinogen]: TRANSPLACENTAL, Route [Promoter]: ORAL, Species: RAT, Strain/Sex: F344/MALE) is on record?
Answer: Its outcome is “kidney: renal cell adenoma”.

Question: What about the outcome (Carcinogen: METHYL(ACETOXYMETHYL)NITROSAMINE, 56856-83-8, Doses [Carcinogen]: 0.05 MMOL/KG IN 5 ML STERILE PHOSPHATE BUFFER ONCE, Doses [Promoter]: 0, 500 PPM IN DRINKING WATER BEGINNING 2 WK POST CARCINOGEN DOSE AND CONTINUING FOR 78 WK (STUDY DURATION: 80 WK), Route [Carcinogen]: INTRAPERITONEAL, Route [Promoter]: ORAL, Species: RAT, Strain/Sex: F344/MALE) of the same compound?
Answer: The outcome was “kidney: tumor”.

Question: And the outcome (Carcinogen: N-BUTYL-N-(4-HYDROXYBUTYL)NITROSAMINE, 3817-11-6, Doses [Carcinogen]: 0.5% IN DRINKING WATER FOR 4 WK, Doses [Promoter]: 1000 PPM IN DIET BEGINNING 1 D POST CARCINOGEN DOSE FOR DURATION OF STUDY (STUDY DURATION: 36-52 WK), Route [Carcinogen]: ORAL, Route [Promoter]: ORAL, Species: RAT, Strain/Sex: F344/MALE)?
Answer: Its outcome is “urinary bladder: papilloma or carcinoma”.

Question: What about the outcome (Carcinogen: N-NITROSODIETHYLAMINE, 55-18-5, Doses [Carcinogen]: 75 MG ONCE, Doses [Promoter]: 0, 500 PPM IN DRINKING WATER BEGINNING 2 WK POST CARCINOGEN DOSE AND CONTINUING FOR DURATION OF STUDY (STUDY DURATION: 5, Route [Carcinogen]: INTRAPERITONEAL, Route [Promoter]: ORAL, Species: RAT, Strain/Sex: F344/MALE) of the same compound?
Answer: The outcome was “liver: hepatocellular adenoma”.

Question: What about the outcome (Carcinogen: N-NITROSODIETHYLAMINE, 55-18-5, Doses [Carcinogen]: 75 MG ONCE, Doses [Promoter]: 0, 500 PPM IN DRINKING WATER BEGINNING 2 WK POST CARCINOGEN DOSE AND CONTINUING FOR DURATION OF STUDY (STUDY DURATION: 7, Route [Carcinogen]: INTRAPERITONEAL, Route [Promoter]: ORAL, Species: RAT, Strain/Sex: F344/MALE) of the same compound?
Answer: The outcome was “liver: hepatocellular carcinoma; kidney: renal tubular adenoma or adenocarcinoma”.

Question: What about the outcome (Carcinogen: N-[4-(5-NITRO-2-FURYL)-2-THIAZOLYL]FORMAMIDE, 24554-26-5, Doses [Carcinogen]: 0.2% IN DIET FOR 6 WK, Doses [Promoter]: 1000 PPM IN DIET BEGINNING 2 WK POST LAST CARCINOGEN DOSE AND CONTINUING FOR DURATION OF STUDY (STUDY DURATION: 52-68 WK, Route [Carcinogen]: ORAL, Route [Promoter]: ORAL, Species: RAT, Strain/Sex: F344/MALE) of the same compound?
Answer: The outcome was “urinary bladder: papilloma or carcinoma”.

Question: And the outcome (Carcinogen: NONE (PROMOTION OF SPONTANEOUS TUMORS), Doses [Promoter]: 500 PPM IN DIET FOR 4.5 MONTHS (STUDY DURATION: 4.5 MONTHS), Route [Promoter]: ORAL, Species: RAT, Strain/Sex: EKER (TSC2 MUTANT)/MALE)?
Answer: The outcome was “kidney: adenoma or carcinoma”.

Question: What about the outcome (Doses [Carcinogen]: 45 UMOL/KG BW GIVEN INTRAPERITONEALLY TO MOTHERS ON DAYS 16 AND 18 OF GESTATION, Doses [Promoter]: 0, 0.05% IN DRINKING WATER BEGINNING AT 4 WK OF AGE AND CONTINUING FOR 81 WK (STUDY DURATION: 85 WK), Route [Carcinogen]: TRANSPLACENTAL, Route [Promoter]: ORAL, Species: RAT, Strain/Sex: F344/MALE) of the same compound?
Answer: Its outcome is “kidney: tumors”.

Question: What about the outcome (Doses [Carcinogen]: 90 UMOL/KG BW GIVEN INTRAPERITONEALLY TO MOTHERS ON DAY 17 OF GESTATION, Doses [Promoter]: 0, 0.05% IN DRINKING WATER BEGINNING AT 4 WK OF AGE AND CONTINUING FOR 81 WK (STUDY DURATION: 85 WK), Route [Carcinogen]: TRANSPLACENTAL, Route [Promoter]: ORAL, Species: RAT, Strain/Sex: F344/MALE) of the same compound?
Answer: Its outcome is “kidney: tumors”.

Question: And the outcome (Doses [Carcinogen]: 90 UMOL/KG ONCE IN DISTILLED WATER, Doses [Promoter]: 0, 500 PPM IN DRINKING WATER BEGINNING 2 WK POST CARCINOGEN DOSE (STUDY DURATION: 96 WK), Route [Carcinogen]: INTRAPERITONEAL, Route [Promoter]: ORAL, Species: RAT, Strain/Sex: F344/MALE)?
Answer: Its outcome is “kidney: adenoma or carcinoma”.

Question: With `O=[Se](O)O` as the compound, how does the outcome (Carcinogen: N-METHYL-N'-NITRO-N-NITROSOGUANIDINE [70-25-7], Doses [Carcinogen]: 20 MG/KG BW DAILY FOR 10 D, Doses [Promoter]: 0, 2, 4 MG/L 1 WK BEFORE MNNG (STUDY DURATION: 43 WKS), Doses [Promoter]: 0, 2, 4 MG/L 1 WK BEFORE MNNG (STUDY DURATION: 43 WKS), Route [Carcinogen]: GAVAGE?, Route [Promoter]: DRINKING WATER, Species: RAT, Strain/Sex: WISTAR/MALE) read?
Answer: The outcome was “stomach: gastric cancer”.

Question: What about the outcome (Doses [Carcinogen]: 20 MG/KG/D FOR 10 D, Doses [Promoter]: 2, 4 MG/L WATER ONE WK BEFORE CARCINOGEN (STUDY DURATION: 43 WK), Route [Carcinogen]: GAVAGE, Route [Promoter]: DRINKING WATER, Species: RAT, Strain/Sex: WISTAR (15/GROUP)) of the same compound?
Answer: Its outcome is “stomach: gastric leiomyoma”.
